Data as given in patent US8304577B2, “Modulators of G protein-coupled receptor 88” (Bristol-Myers Squibb Company, priority 2009, dated 2012).

Molecular target: G protein-coupled receptor 88 (GPR88) (Homo sapiens, UniProt Q9GZN0)
Assay: GPR88 functional assay: EC50 of Table 2 (GTPγS assay and cAMP HTRF assay described; table does not say which)
Format: cell-based
Settings: class symbol; read-out: Range (EC50)
Experimental: 96 well GTPγS assay plates were purchased from Perkin Elmer. Wheat Germ Agglutinin PVT SPA beads and ^35S-GTPγS were purchased from Amersham GDP, GTPγS and all buffer reagents were from Sigma. 384 well white NBS plates were purchased from corning. Pertussis toxin was purchased from Calbiochem. All cell culture reagents were purchased from Invitrogen. Forskolin was purchased from Sigma. The cAMP HTRF kit was purchased fron Cisbio International.
The GTPγS assay buffer consisted of 10 mM MgCl2, 180 mM NaCl, 200 uM GDP, 0.167 mg/mL DTT, 1 mM EGTA and 20 mM HEPES pH7.4. This buffer was used for dilution of membranes, beads, and ^35S GTPγS components. To each well of the 96 well assay plate 48 ul assay buffer, 2 ul of 100× compound, 50 ul membrane solution (0.2 ug/ul), 50 ul ^35S GTPγS solution (0.8 nM) and 50 ul of SPA beads (10 mg/mL). Non-specific binding was determined by the addition of cold GTPγS to control wells. The plates were sealed with clear sealing tape and incubated at room temperature for 1 hour. GTPγS activity was detected using a Wallac Micro-Beta Trilux liquid scintillation counter. Non-specific binding was determined using 10 uM cold GTPγS.
The cAMP HTRF assay is modified from the Cisbio International kit procedure 62AM4PEJ. Assay plates were prepared by stamping 0.1 ul of 100× compound stock solutions diluted in DMSO or DMSO alone into 384 well NBS plates. The cAMP HTRF assay was performed using cells in suspension. The cAMP HTRF assay buffer consisted of Hank's Balanced Salt Solution (HBSS), 2 mM CaCl2, 5 mM MgCl2, 20 mM HEPES and 1 mM 3-isobutyl-1-methylxanthine (IBMX) (added fresh at the time of assay). For pertussis toxin treatment pertussis toxin (100 ng/mL) was added to culture medium for 16 hours prior to assay. Confluent cells were disrupted with cell dissociation buffer count cells then centrifuged at 1000×g for 5 minutes. The cell pellet was resuspended in assay buffer alone for basal cAMP measurements or with 0.75 uM forskolin (added immediately prior to addition to wells) for addition to all other wells. Using a Multidrop 384 (Lab systems) 10 ul of cell suspension was added to each well containing compound or DMSO. The plates were incubated at room temperature for 30 minutes covered. During this time the cAMP standard curve was prepared as per manufacturer's instruction. At the end of the incubation 10 ul of anti-cAMP cryptate and 10 ul cAMP-XL, diluted in manufacturer's lysis buffer, were added to each well. The plated were incubated at room temperature for 60 minutes covered then read on an Envision plate reader (Perkin Elmer) and the 665 nm/620 nm fluorescence ratio determined Fluorescence ratio values were converted to molar cAMP concentrations from the standard curve using the GraphPad Prism program.

Sequence of G protein-coupled receptor 88 (GPR88) (Q9GZN0 whole entry, species assumed): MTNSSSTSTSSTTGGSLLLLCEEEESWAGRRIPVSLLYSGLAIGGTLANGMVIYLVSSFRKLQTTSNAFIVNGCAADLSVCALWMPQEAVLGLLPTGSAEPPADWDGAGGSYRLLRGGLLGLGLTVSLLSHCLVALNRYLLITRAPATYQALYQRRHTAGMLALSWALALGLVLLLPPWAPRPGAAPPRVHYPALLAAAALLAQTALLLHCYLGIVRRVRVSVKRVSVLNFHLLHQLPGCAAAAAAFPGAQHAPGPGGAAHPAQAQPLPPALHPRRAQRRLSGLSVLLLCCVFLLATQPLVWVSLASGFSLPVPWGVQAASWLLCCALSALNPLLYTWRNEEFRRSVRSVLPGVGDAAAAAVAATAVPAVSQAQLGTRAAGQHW

EC50 [nM] | Compound
100 to 200 | CCCC(C)COc1ccc([C@H](CO)NC(=O)[C@@H](CC)c2ccccc2)cc1 (stereo partly drawn) [Example 2, (2S)-N-((1R)-2-Hydroxy-1-(4-(2-methylpentyloxy)phenyl)ethyl)-2-phenylbutanamide]
100 to 200 | CCCC(C)COc1ccc(C(CN2CCN(C)CC2)NC(=O)[C@@H](C)c2ccccc2)cc1 (mixture of isomers) [Example 36, (2S)-N-(1-(4-(2-Methylpentyloxy)phenyl)-2-(4-methylpiperazin-1-yl)ethyl)-2-phenylpropanamide]
100 to 200 | CCCC(C)COc1ccc([C@H](CNC[C@H](C)N)NC(=O)[C@@H](C)c2ccccc2)cc1 (stereo partly drawn) [Example 17, (2S)-N-((1R)-2-((S)-2-Aminopropylamino)-1-(4-(2-methylpentyloxy)phenyl)ethyl)-2-phenylpropanamide]
100 to 200 | CCCC(C)COc1ccc([C@H](CNCc2ccncc2)NC(=O)[C@@H](C)c2ccccc2)cc1 (stereo partly drawn) [Example 9, (2S)-N-((1R)-1-(4-(2-Methylpentyloxy)phenyl)-2-(pyridin-4-ylmethylamino)ethyl)-2-phenylpropanamide]
39 to 99 | CCCC(C)COc1ccc([C@H](CNCC2(N)CCCC2)NC(=O)[C@@H](C)c2ccccc2)cc1 (stereo partly drawn) [Example 15, (2S)-N-((1R)-2-((1-Aminocyclopentyl)methylamino)-1-(4-(2-methylpentyloxy)phenyl)ethyl)-2-phenylpropanamide]
100 to 200 | CCCC(C)COc1ccc([C@H](CNCc2cc[nH]n2)NC(=O)[C@@H](C)c2ccccc2)cc1 (stereo partly drawn) [Example 11, (2S)-N-((1R)-2-((1H-Pyrazol-3-yl)methylamino)-1-(4-(2-methylpentyloxy)phenyl)ethyl)-2-phenylpropanamide]
100 to 200 | CCCC(C)COc1ccc([C@H](CNC(=O)[C@H](N)CCC)NC(=O)[C@@H](C)c2ccccc2)cc1 (stereo partly drawn) [Example 31, (2R)-2-Amino-N-((2R)-2-(4-(2-methylpentyloxy)phenyl)-2-((S)-2-phenylpropanamido)ethyl)pentanamide]
100 to 200 | CCCC(C)COc1ccc([C@H](CN2CCOCC2)NC(=O)[C@@H](C)c2ccccc2)cc1 (stereo partly drawn) [Example 35, (2S)-N-((1R)-1-(4-(2-Methylpentyloxy)phenyl)-2-morpholinoethyl)-2-phenylpropanamide]
39 to 99 | CCCC(C)COc1ccc([C@H](CNC(=O)[C@@H](N)[C@@H](C)CC)NC(=O)[C@@H](C)c2ccccc2)cc1 (stereo partly drawn) [Example 19, (2S,3S)-2-Amino-3-methyl-N-((2R)-2-(4-(2-methylpentyloxy)phenyl)-2-((S)-2-phenylpropanamido)ethyl)pentanamide]
100 to 200 | CCCC(C)COc1ccc([C@H](CNCC(C)CC)NC(=O)[C@@H](C)c2ccccc2)cc1 (stereo partly drawn) [Example 8, (2S)-N-((1R)-2-(2-Methylbutylamino)-1-(4-(2-methylpentyloxy)phenyl)ethyl)-2-phenylpropanamide]
39 to 99 | CCCC(C)COc1ccc([C@H](CNC(=O)[C@@H](N)CCC)NC(=O)[C@@H](C)c2ccccc2)cc1 (stereo partly drawn) [Example 26, (2S)-2-Amino-N-((2R)-2-(4-(2-methylpentyloxy)phenyl)-2-((S)-2-phenylpropanamido)ethyl)pentanamide]
100 to 200 | CCCC(C)COc1ccc([C@H](CNCc2cccnc2)NC(=O)[C@@H](C)c2ccccc2)cc1 (stereo partly drawn) [Example 13, (2S)-N-((1R)-1-(4-(2-Methylpentyloxy)phenyl)-2-(pyridin-3-ylmethylamino)ethyl)-2-phenylpropanamide]
100 to 200 | CCCC(C)COc1ccc([C@H](CNC(=O)[C@@H](N)[C@H](C)CC)NC(=O)[C@@H](C)c2ccccc2)cc1 (stereo partly drawn) [Example 27, (2S,3R)-2-Amino-3-methyl-N-((2R)-2-(4-(2-methylpentyloxy)phenyl)-2-((S)-2-phenylpropanamido)ethyl)pentanamide]
39 to 99 | CCCC(C)COc1ccc([C@H](CNC(=O)[C@@H](N)CC)NC(=O)[C@@H](C)c2ccccc2)cc1 (stereo partly drawn) [Example 25, (2S)-2-Amino-N-((2R)-2-(4-(2-methylpentyloxy)phenyl)-2-((S)-2-phenylpropanamido)ethyl)butanamide]
39 to 99 | CCCC(C)COc1ccc([C@H](CNC(=O)[C@@H](N)C(C)C)NC(=O)[C@@H](C)c2ccccc2)cc1 (stereo partly drawn) [Example 24, (2S)-2-Amino-3-methyl-N-((2R)-2-(4-(2-methylpentyloxy)phenyl)-2-((S)-2-phenylpropanamido)ethyl)butanamide]
39 to 99 | CCCC(C)COc1ccc([C@H](CNC(=O)[C@H](C)N)NC(=O)[C@@H](C)c2ccccc2)cc1 (stereo partly drawn) [Example 23, (2S)-2-Amino-N-((2R)-2-(4-(2-methylpentyloxy)phenyl)-2-((S)-2-phenylpropanamido)ethyl)propanamide]
39 to 99 | CCCC(C)COc1ccc([C@H](CNCC2CC2)NC(=O)[C@@H](C)c2ccccc2)cc1 (stereo partly drawn) [Example 7, (2S)-N-((1R)-2-(Cyclopropylmethylamino)-1-(4-(2-methylpentyloxy)phenyl)ethyl)-2-phenylpropanamide]
100 to 200 | CCCC(C)COc1ccc([C@H](CNC(=O)[C@@H](N)[C@@H](C)OC)NC(=O)[C@@H](C)c2ccccc2)cc1 (stereo partly drawn) [Example 32, (2S,3R)-2-Amino-3-methoxy-N-((2R)-2-(4-(2-methylpentyloxy)phenyl)-2-((S)-2-phenylpropanamido)ethyl)butanamide]
100 to 200 | CCCC(C)COc1ccc([C@H](CNC(=O)[C@H](N)[C@@H](C)CC)NC(=O)[C@@H](C)c2ccccc2)cc1 (stereo partly drawn) [Example 33, (2R,3S)-2-Amino-3-methyl-N-((2R)-2-(4-(2-methylpentyloxy)phenyl)-2-((S)-2-phenylpropanamido)ethyl)pentanamide]
39 to 99 | CCCC(C)COc1ccc([C@H](CNC(=O)[C@H](N)CC(C)C)NC(=O)[C@@H](C)c2ccccc2)cc1 (stereo partly drawn) [Example 20, (2R)-2-Amino-4-methyl-N-((2R)-2-(4-(2-methylpentyloxy)phenyl)-2-((S)-2-phenylpropanamido)ethyl)pentanamide]
39 to 99 | CCCC(C)COc1ccc([C@H](CNC(=O)[C@H](N)[C@H](C)CC)NC(=O)[C@@H](C)c2ccccc2)cc1 (stereo partly drawn) [Example 22, (2R,3R)-2-Amino-3-methyl-N-((2R)-2-(4-(2-methylpentyloxy)phenyl)-2-((S)-2-phenylpropanamido)ethyl)pentanamide]
100 to 200 | CCCC(C)COc1ccc([C@H](CNC(=O)[C@H](N)C2CC2)NC(=O)[C@@H](C)c2ccccc2)cc1 (stereo partly drawn) [Example 30, (2S)-N-((1R)-2-((R)-2-Amino-2-cyclopropylacetamido)-1-(4-(2-methylpentyloxy)phenyl)ethyl)-2-phenylpropanamide]
100 to 200 | CCCC(C)COc1ccc([C@H](CNC(=O)[C@H](N)Cc2cscn2)NC(=O)[C@@H](C)c2ccccc2)cc1 (stereo partly drawn) [Example 34, (2R)-2-Amino-N-((2R)-2-(4-(2-methylpentyloxy)phenyl)-2-((S)-2-phenylpropanamido)ethyl)-3-(thiazol-4-yl)propanamide]
100 to 200 | CCCC(C)COc1ccc([C@H](CNCC2CCOC2)NC(=O)[C@@H](C)c2ccccc2)cc1 (stereo partly drawn) [Example 14, (2S)-N-((1R)-1-(4-(2-Methylpentyloxy)phenyl)-2-((tetrahydrofuran-3-yl)methylamino)ethyl)-2-phenylpropanamide]

Compound | EC50 [nM]
CCCC(C)COc1ccc([C@H](CN(C)C)NC(=O)[C@@H](C)c2ccccc2)cc1 (stereo partly drawn) [Example 6, (2S)-N-((1R)-2-(Dimethylamino)-1-(4-(2-methylpentyloxy)phenyl)ethyl)-2-phenylpropanamide] | 39 to 99
CCCNC[C@H](NC(=O)[C@@H](C)c1ccccc1)c1ccc(OC[C@@H](C)CC)cc1 [Example 38, (S)-N-{(R)-1-[4-((S)-2-Methyl-butoxy)-phenyl]-2-propylamino-ethyl}-2-phenylpropionamide] | 100 to 200

Same assay, conditions: exact value given; read-out: Range (EC50)

EC50 [nM] | Compound
89 | CCCC(C)COc1ccc([C@H](CNC(=O)[C@@H]2CCCN2)NC(=O)[C@@H](C)c2ccccc2)cc1 (stereo partly drawn) [Example 21, (2S)-N-((2R)-2-(4-(2-Methylpentyloxy)phenyl)-2-((S)-2-phenylpropanamido)ethyl)pyrrolidine-2-carboxamide]
100 | CCCC(C)COc1ccc([C@H](CNC[C@@H]2CCCN2)NC(=O)[C@@H](C)c2ccccc2)cc1 (stereo partly drawn) [Example 16, (2S)-N-((1R)-1-(4-(2-Methylpentyloxy)phenyl)-2-((S)-pyrrolidin-2-ylmethylamino)ethyl)-2-phenylpropanamide]
